From patent US20210284691A1, “CBX8 CHROMDOMAIN INHIBITORS AND THE USES THEREOF” (Purdue Research Foundation, priority 2019, published 2021) come the findings set out here.

By IC50 is commonly meant the concentration that inhibits the measured activity by half. What is called Kd is a measure of binding affinity in units of concentration. Low values mean higher affinity, high ones lower affinity.

Structures are written as SMILES. Read-outs that look alike come from different tables or passages of the source. Square brackets hold non-standard residues; d marks the D form. Peptide text beside a SMILES is read from it. * marks the point of attachment. ξ: configuration not given here. Isoxazole3carbonyl(5-Me) = Cc1cc(C(=O)*)no1; Tyr(3-Cl) = N[C@@H](Cc1ccc(O)c(Cl)c1)C(=O)O; Benzoyl(4-OPh) = O=C(c1ccc(Oc2ccccc2)cc1)*; Benzoyl(4-Ph) = O=C(c1ccc(-c2ccccc2)cc1)*; Lys(Me3) = C[N+](C)(C)CCCC[C@H](N)C(=O)O; Gly(3-thienyl) = N[C@H](C(=O)O)c1ccsc1; Lys(Et2) = CCN(CC)CCCC[C@H](N)C(=O)O; Gly(cPent) = N[C@H](C(=O)O)C1CCCC1; Gly(cPr) = N[C@H](C(=O)O)C1CC1; ξIle = CC[C@H](C)C(N)C(=O)O; NH(propargyl) = C#CCN* Bounds are passed on as bounds.

Assay [1] has as its target T1, CBX8 ChD (Homo sapiens, UniProt Q9HC52).
T1 construct: CBX chromodomain constructs; host or cells: E. coli BL21 CodonPlus RIL
T1 sequence (Q9HC52 11-69 limits assumed): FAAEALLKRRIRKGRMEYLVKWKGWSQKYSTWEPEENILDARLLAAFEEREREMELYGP
The assay can be described thus: Competitive fluorescence polarization (FP) assay. The assay is classed as binding. The procedure:
(§1) CBX chromodomain constructs (addgene plasmid #25158 (CBX2), #25237 (CBX4), #25296 (CBX6), #25241 (CBX7) and #62514 (CBX8, provided by Cheryl Arrowsmith), Kaustov et al.) were transformed into chemically competent BL21 CodonPlus RIL E. coli cells (Stratagene, La Jolla, Calif.) as N-terminal His6-tagged proteins. Bacterial growth was completed at 37° C. in LB media to OD600=2.0, followed by reducing the temperature to 16° C. over 30-60 min and induced with 1 mM IPTG for 16 h. Cells were collected by centrifugation at 6000 rpm for 20 min and resuspended in ChD binding buffer (20 mM Tris, pH 8, 150 mM NaCl, 0.01% Tween-20, 20 mM imidazole) with 1.0 mM PMSF. Bacteria pellets were stored at −80° C. until needed. Pellets were thawed on ice for 10 min in ChD binding buffer, and shaked at 4° C. supplemented with 100 μg/mL lysozyme, 1 mg/mL CHAPS and 1 mM PMSF, for 30 min. Cells were subsequently lysed by sonication (15 W, 30 s on, followed by 30 s off, twice, followed by 20 W for 1 min). The solubilized fraction was collected by centrifugation at 15000 rpm for 40 min at 4° C. Meanwhile, Ni-NTA Agarose resin (QIAGEN, Venlo, Netherlands) was washed with H2O and equilibrated with ChD binding buffer. The soluble fraction was incubated with the prewashed Ni-NTA agarose resin at 4° C. for 2 h. The resin was then washed 3× with ChD purification buffer (20 mM Tris, pH 8, 150 mM NaCl, 0.01% Tween-20, 1 mM PMSF). Proteins were eluted by the addition of 0.5 M imidazole to ChD purification buffer. The elution was diluted with 30% glycerol, flash frozen, and stored at −80° C. until needed. Protein purity was assessed by SDS-PAGE and concentration was determined by the Pierce 660 kit (Thermo Scientific).
(§2) Competitive Fluorescence polarization (FP) assay of PSL hits against CBX6 ChD, CBX7 ChD and CBX8 ChD. FP was measured by titration of CBX ChDs to a FITC-labelled probe as previously reported (Simhadri et al.). Binding and competition FP assays were performed in black 384-well plates with optical bottoms. The protein concentrations used were selected based on the reported relative affinity of the CBX ChD protein for the FITC probes. The FITC-labeled probe was kept constant at 100 nM with 1 μM CBX6, 0.4 μM CBX7 or 4 μM CBX8 with varying amounts of peptide by 2-fold series dilutions, from 500 μM as highest peptide concentration to 0.488 μM as the lowest. Assays were performed for each peptide in four replicates.
In general terms: Polarisation of emitted light reports the rotation of a fluorescent probe.

The next assay has as its target T2, CBX6 ChD (Homo sapiens, UniProt O95503).
T2 construct: CBX chromodomain constructs; host or cells: E. coli BL21 CodonPlus RIL
T2 sequence (O95503 11-69 limits assumed): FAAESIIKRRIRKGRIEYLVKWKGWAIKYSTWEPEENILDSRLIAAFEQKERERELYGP
The assay is described as follows: Competitive fluorescence polarization (FP) assay. The assay is classed as binding. The following applies: average of quadruplicates ± s.d. On the procedure:
as §1, §2

Another assay deals with T3, CBX7 ChD (Homo sapiens, UniProt O95931).
T3 construct: CBX chromodomain constructs; host or cells: E. coli BL21 CodonPlus RIL
T3 sequence (O95931 11-69 limits assumed): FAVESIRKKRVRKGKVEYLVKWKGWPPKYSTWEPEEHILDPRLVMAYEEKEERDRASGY
The assay can be described thus: Competitive fluorescence polarization (FP) assay. The assay is classed as binding. Conditions: average of quadruplicates ± s.d. On the procedure: as §1, §2

The target in assay [2] is T1, CBX8 ChD. The assay can be described thus: Direct fluorescence polarization (FP) binding assay. On the procedure:
as §1, with “Bacterial” for “CBX chromodomain constructs (addgene plasmid #25158 (CBX2), #25237 (CBX4), #25296 (CBX6), #25241 (CBX7) and #62514 (CBX8, provided by Cheryl Arrowsmith), Kaustov et al.) were transformed into chemically competent BL21 CodonPlus RIL E. coli cells (Stratagene, La Jolla, Calif.) as N-terminal His6-tagged proteins. Bacterial”
Direct fluorescence polarization (FP) binding assay of PSL hits against PcG CBX ChDs. FP assays were conducted as above with slight modifications. Alkyne peptides described above were conjugated with a fluorescein group(5-/6-FAM) through copper catalyzed click reaction as previously described. The FAM-labeled peptide was kept constant at 100 nM. The CBX ChD proteins were titrated by 2-fold series dilutions in the assays. The highest protein concentrations, at which FAM-peptide was completely bound, used for each CBX in the direct binding assays depends on the binding affinity of the peptides. Assays were performed for each peptide in four replicates.

In assay [3] the test system is H3K27me3, AR, ENO2, N-Myc, CBX2 protein levels. The assay is described as follows: Western blotting of protein expression in VCaP_NED cells. The assay is classed as cell-based. The text has this:
FIG. 12A). Neuroendocrine differentiation (NED) of prostate cancer induced by androgen deprivation. Representative pictures of LNCaP cells treated with normal media or charcoal-stripped serum (CSS) media for 6 days to induce neuroendocrine differentiation (LNCaP_NED). FIG. 12B). Transcriptional fold changes of KLK3/TMPRSS2/ENO2/CHGA were quantified normalized to control gene YWHAZ upon CSS media treatment for 6 or 9 days. FIG. 12C). Western blotting of CBX paralogs in LNCaP and LNCaP_NED cells generated from 14-day CSS treatment. FIG. 12D). Cell proliferation of LNCaP_NED following 5 days incubation with 2 or 10 μM SW2_152F. DMSO was used as negative control. FIG. 12E). LNCaP_NED cells were treated with 10 μM SW2_152F for 24 h-96 h. Cell morphology pictures were captured starting from 24 h. Average cell size were plotted at 24 h or 48 h for both DMSO group and compound treated group. FIG. 12F). LNCaP_NED cells were treated with 10 μM or 50 μM SW2_152F for 48 hours. Transcriptional fold change of genes (KLK3/TMPRSS2/AR/CBX2) were normalized to YWHAZ in LNCaP_NED cells with SW2_152F treatment or DMSO. FIG. 12G). LNCaP cells were treated with DMSO. LNCaP_NED cells were treated with DMSO, 10 μM GSK343 or 10 μM SW2_152F for 48 hours. Whole cell lysates were extracted for western blotting. FIG. 12H). LNCaP_NED cells were treated with DMSO or 10 μM SW2_152F for 4 hours before harvest. Binding of H3K27me3 and CBX2 at specific genomic sites (KLK3/TMPRSS2, e: enhancer, p: promoter) were evaluated using chromatin immunoprecipitation-qPCR. For all experiments in the figure, error bars represent SEM n=3 biological replicates, p-values were calculated using two-tailed Student's t-test, *=p<0.05, **=p<0.01, ***=p<0.001, ****=p<0.0001.
In another androgen-sensitive prostate cancer cell line, VCaP, 6 days of androgen deprivation decreases AR protein expression and increases ENO2, N-Myc, H3K27me3 and CBX2 protein expression (FIG. 12G), similar to published findings (Y. Zhang, et al., 2018). Using this NED cell line (VCaP_NED), we tested how addition of EZH2 inhibitor GSK343 or CBX2 inhibitor SW2_152F affects protein expression changes during NED.
On the technique in general: Immunoblotting shows a protein as a band on a membrane.

Where [4] appears, read: competitive FP, average of quadruplicates ± s.d., read-out: IC50 (μM) CBX8.

Experimental for THP1 cells: Cells were grown for 72 h before trypsinized and counted. Cell suspension was homogenized by gentle pipetting and counted using Countess II (#AMQAF1000, Life Technologies). […] At day 6, 25 percent of cells in each well were split and transferred to new wells to avoid over-confluency, and media was replaced with fresh compounds in new media. The cell viability assay was extended to 12 days, with cell counting and fresh compound replenishment at day 3, 6, 9.
Luminescence was normalized to DMSO-treated groups. The IC50 was calculated using the “log[inhibitor] vs. the normalized response-variable slope” equation in GraphPad Prism 7.

As to `CC[C@H](C)C(NC(=O)[C@@H](NC(=O)c1ccc(-c2ccccc2)cc1)C1CC1)C(=O)N[C@@H](CCCC[N+](C)(C)C)C(=O)N[C@@H](CO)C(N)=O` (stereo partly drawn) [SW2_101A] ({Benzoyl(4-Ph)}-[Gly(cPr)][ξIle][Lys(Me3)]S-NH2), at CBX8 ChD [1] (setting [4]), the IC50 turned out to be 40 ± 8.3 µM.

Consider `C#CCNC(=O)[C@H](CO)NC(=O)[C@H](CCCCN(CC)CC)NC(=O)[C@@H](NC(=O)[C@@H](NC(=O)c1ccc(Oc2ccccc2)cc1)c1ccsc1)[C@@H](C)CC` [SW2-110B] ({Benzoyl(4-OPh)}-[Gly(3-thienyl)]I[Lys(Et2)]S-{NH(propargyl)}), for which the “IC50 (μM) CBX6” value at CBX6 ChD was “ND (Aggreg.)”. Besides, the “IC50 (μM) CBX7” value at CBX7 ChD was “ND (Aggreg.)”.

For `C#CCNC(=O)[C@H](CO)NC(=O)[C@H](CCCCN(CC)CC)NC(=O)C(NC(=O)[C@@H](NC(=O)c1ccc(-c2ccccc2)cc1)c1ccsc1)[C@@H](C)CC` (stereo partly drawn) [SW2_104B] ({Benzoyl(4-Ph)}-[Gly(3-thienyl)][ξIle][Lys(Et2)]S-{NH(propargyl)}), at CBX6 ChD, the “IC50 (μM) CBX6” value is “ND (Aggreg.)”. Moreover, the “IC50 (μM) CBX7” value on CBX7 ChD was “ND (Aggreg.)”. The half-inhibitory concentration (IC50) at CBX8 ChD [1] (setting [4]) was over 15 µM.

With `CC[C@H](C)C(NC(=O)[C@@H](NC(=O)c1ccc(Oc2ccccc2)cc1)C1CCCC1)C(=O)N[C@@H](CCCC[N+](C)(C)C)C(=O)N[C@@H](CO)C(N)=O` (stereo partly drawn) [SW2_101B] ({Benzoyl(4-OPh)}-[Gly(cPent)][ξIle][Lys(Me3)]S-NH2), the concentration for half-maximal inhibition (IC50) on CBX6 ChD and on CBX7 ChD was over 100 µM throughout.

As for `CC[C@H](C)[C@H](NC(=O)[C@@H](NC(=O)c1ccc(Oc2ccccc2)cc1)C1CCCC1)C(=O)N[C@@H](CCCCN(CC)CC)C(=O)N[C@@H](CO)C(=O)NCc1cn(CCCCNC(=O)c2ccc3c(c2)C2(OC3=O)c3ccc(O)cc3Oc3cc(O)ccc32)nn1` [SW2_110A-FL], on CBX8 ChD [2] (from Kd values), the “selectivity for CBX8 ChD over CBX7 ChD” value is 20 fold and the “selectivity for CBX8 over CBX2” value came out at 5 fold.

On to `CC[C@H](C)C(NC(=O)[C@@H](NC(=O)c1ccc(Oc2ccccc2)cc1)C1CC1)C(=O)N[C@@H](CCCC[N+](C)(C)C)C(=O)N[C@@H](CO)C(N)=O` (stereo partly drawn) [SW2_101F] ({Benzoyl(4-OPh)}-[Gly(cPr)][ξIle][Lys(Me3)]S-NH2), for which the results for the concentration for half-maximal inhibition (IC50) at CBX6 ChD and on CBX8 ChD [1] (setting [4]) were over 100 µM and 4 ± 1.1 µM, respectively.

Consider `CC[C@H](C)C(NC(=O)[C@@H](NC(=O)c1ccc(-c2ccccc2)cc1)C1CCCC1)C(=O)N[C@@H](CCCC[N+](C)(C)C)C(=O)N[C@@H](CO)C(N)=O` (stereo partly drawn) [SW2_89] ({Benzoyl(4-Ph)}-[Gly(cPent)][ξIle][Lys(Me3)]S-NH2), for which the “IC50 (μM) CBX6” value on CBX6 ChD is reported as “ND (Aggreg.)”.

`CC[C@H](C)C(NC(=O)[C@@H](NC(=O)[C@H](Cc1ccc(O)c(Cl)c1)NC(=O)c1cc(C)on1)C1CC1)C(=O)N[C@@H](CCCC[N+](C)(C)C)C(=O)N[C@@H](CO)C(N)=O` (stereo partly drawn) [SW2_90] ({Isoxazole3carbonyl(5-Me)}-[Tyr(3-Cl)][Gly(cPr)][ξIle][Lys(Me3)]S-NH2): on CBX7 ChD, the 50% inhibitory concentration (IC50) stood at 0.82 ± 0.12 µM.

Turning to `C#CCNC(=O)[C@H](CO)NC(=O)[C@H](CCCCN(CC)CC)NC(=O)C(NC(=O)[C@@H](NC(=O)c1ccc(Oc2ccccc2)cc1)C1CCCC1)[C@@H](C)CC` (stereo partly drawn) [SW2_110A] ({Benzoyl(4-OPh)}-[Gly(cPent)][ξIle][Lys(Et2)]S-{NH(propargyl)}), the “IC50 (μM) CBX6” value on CBX6 ChD is reported as “ND (Aggreg.)”. In addition, the “IC50 (μM) CBX7” value on CBX7 ChD was “ND (Aggreg.)”. The 50% inhibitory concentration (IC50) at CBX8 ChD [1] was over 7 µM. Further, on CBX8 ChD [2], the Kd is about 0.8 µM and the “selectivity for CBX8 over all other CBX paralogs in vitro” value is given as at least 5 fold. Moreover, the “inhibition of THP1 proliferation compared to DMSO” value with THP1 cells (100 μM, after 12 days of treatment) is about 80%. In addition, in the assay on THP1 cells (read-out: IC50 for growth inhibition of THP1 cells, 12-day treatment, CellTiter-Glo), the concentration for half-maximal inhibition (IC50) amounted to 25 ± 1.1 µM.

`CCCc1cc(C)[nH]c(=O)c1CNC(=O)c1cc(-c2ccnc(N3CCN(C)CC3)c2)cc2c1cnn2C(C)C` [GSK343]: in assay [3], the CBX2 protein expression result is recorded as “decrease in CBX2 expression”. Moreover, in assay [3] (10 μM, 48 hours), the H3K27me3 levels result is “reduces H3K27me3 levels”. For the same molecule, the “AR, ENO2 and N-Myc expression” value in assay [3] (compared to DMSO) is “increase AR and decrease ENO2 and N-Myc expression”.
